Converted amounts (≈) assume the structure as drawn.
Tests used:
Type in all cases: functional
P388 [1] = assay: In vivo antitumor activity against mouse P388 cells at 0.125 ug/kg/day, ip
KB = assay: Cytotoxicity against human KB cells; settings: read-out: ED50 (the source's name)
P388 [2] = assay: Cytotoxicity against mouse P388 cells; settings: read-out: ED50 (the source's name)

| Compound | T/C (P388 [1]) | EC50 (KB) | EC50 (P388 [2]) |
| --- | --- | --- | --- |
| COC(=O)[C@]12OC[C@]34[C@H]([C@@H](O)[C@@H]1O)[C@@]1(C)CC(=O)C(O)=C(C)[C@@H]1C[C@H]3OC(=O)[C@H](OC(=O)C=C(C)C)[C@@H]24 [BRUSATOL] | 158% |  |  |
| COc1cc([C@H]2Oc3c(OC)cc4ccc(=O)oc4c3O[C@@H]2CO)ccc1O [CLEOMISCOSIN A] |  | > 10 µg/mL | 0.4 µg/mL (≈ 1.04 µM) |

Reference: ChEMBL document CHEMBL1151617, “Antitumor agents, 65. Brusatol and cleomiscosin-A, antileukemic principles from Brucea javanica” (1984)
